“Also recorded” adds a separate entry of the source. Read-outs that look alike come from different tables or passages of the source. Blank lines part the entries; values can stand above or below the compound they belong to.
How the values were obtained:
HUVECs [1] = assay: Matrigel endothelial cell capillary-tube formation assay; format: cell-based, human; details: 22 h; for Activity (anti-angiogenicity): measured at 20 μM, HUVECs on Matrigel
Method: HUVECs were purchased from Cedarlane Laboratories (Burlington, Canada) and maintained in Endothelial Cell Basal Medium-2 (EBM-2) supplemented with EGM-2 growth factor mixture (Clonetics) and 2% Foetal bovine serum. The cells were cultured at 37° C. under a humidified 95%/5% (v/v) mixture of air and CO2.
Matrigel endothelial cell tube formation assays were performed using BD Matrigel™ (Becton, Dickinson). BD Matrigel™ was thawed at 4° C., and 150 μL were quickly added to each well of a 48-well plate and allowed to solidify for 60 min at 37° C. HUVECs (7×10^4 cells/mL) In EC basal medium-2 (EBM-2) were seeded 250 μL per well onto the surface of the solid BD Matrigel™ in the presence of the compounds to be tested. The cells were incubated for 22 h at […] in a 5% CO2 incubator. Tube formation was monitored by using a Leitz Labovert (Leitz, Wetzlar, Germany) inverted microscope. Two randomly selected two microscopic fields were photographed with a digital camera (Nikon, COOLPICKS 995). The total length of tube structures in each photograph was measured using ImageJ™ free software (http://rsb.info.nih.gov/ij/) and was normalized to that of control with no test compound. Each reported value represents the average of total six photographs from three independent experiments.

[2] = in vivo; cited from earlier work
angiogenesis = details: cited from earlier work; for Activity (angiogenic / anti-angiogenic): Ref. Thaker et al., 2006 (a), Ref. Basu et al., 2001 (b)
HUVECs [3] = assay: Invasion of HUVECs through Matrigel-coated filter (Matrigel Invasion Chambers); format: cell-based, human; details: measured at 20 μM; HUVECs
Method: HUVECs were purchased from Cedarlane Laboratories (Burlington, Canada) and maintained in Endothelial Cell Basal Medium-2 (EBM-2) supplemented with EGM-2 growth factor mixture (Clonetics) and 2% Foetal bovine serum. The cells were cultured at 37° C. under a humidified 95%/5% (v/v) mixture of air and CO2. Invasion of endothelial cells was measured using BD BioCoatTM Growth Factor Reduced MatrigelTM Invasion Chambers (Beckton-Dickinson; […]). EBM-2 medium (500 μL each) was placed into the lower wells. HUVECs (2.5×10^4) in EBM-2 serum-free medium (500 μL) were seeded into each of the upper wells and incubated in the presence of a test compound. HUVECs were allowed to migrate for 36 h at 37° C. in an atmosphere of 95% air/5% CO2. HUVECs that remained on the upper surface of the filter were removed using a cotton swab. HUVECs that had migrated to the lower surface of the filters were fixed with methanol, stained with 0.1% crystal violet/20% (v/v) methanol and examined using a Leitz Labovert (Leitz, Wetzlar, Germany) inverted microscope after mounting on a slide. Three randomly selected microscopic fields were digitally captured using a Nikon […] 995 digital camera and the number of HUVECs in each photograph were directly counted. Each reported value represents the average and standard deviation of a total […] from two independent experiments.

[4] = 2.47% instilled to normal human eyes; cited from earlier work
[5] = acute intravenous, mice; cited from earlier work
[6] = Storage stability of the eye drop at 4° C. (HPLC profiles); format: physicochemical; details: 0.10% (w/v) eye drop, pH 5.5, one month of storage at 4° C.
retinal capillaries = assay: Glycation of retinal capillaries in diabetic rats (anti-glycated BSA / anti-lectin staining); format: in vivo, Sprague-Dawley rats
Method: Animal weights were monitored every week.
The effects of (S)-isoproterenol on diabetic retinopathy were studied by staining retinal capillaries with antibodies against lectin. The capillary density at the retinal center, corresponding to the macular of the human eye, was analyzed.
Diabetes induces glycation in retina. Since (S)-isoproterenol is a potent anti-glycation agent, penetration of (S)-isoproterenol reduces glycation in diabetic retinal capillaries. Thus, the retinas, which were stained with antibodies against lectin, were also stained with antibodies against glycated bovine serum albumin, and the degree of glycation of retinal capillaries was analyzed.

[7] = Optical stability (racemization) in eye drop formulations, 10 days at 55° C., chiral HPLC; format: physicochemical; details: for % optical purity: 3.0 mg/mL, pH 6.0, starting material 99.87%
Method: The optical isomers of (S)-isoproterenol bitartrate and (S)-isoproterenol dipivalate hydrochloride were separated by HPLC using Shiseido chiral CD-Ph column (250×4.6 mm; 5 μm; isocratic 60:40 of 0.5 M sodium perchlorate/water and acetonitrile; flow rate, 1.0 mL/min). The elution profile was monitored by the absorption at 223 nm for isoproterenol bitartrate and 264 nm for isoproterenol dipivalate hydrochloride. The optical impurities were quantitated by the absorbance at 223 nm for isoproterenol bitartrate and 264 nm for isoproterenol dipivalate hydrochloride and by using a curve fitting software TABLECurve2D (Systat). The impurities of (R)-isoproterenol bitartrate and (R)-isoproterenol dipivalate hydrochloride were estimated as […], respectively. Thus, the racemization induced during synthesis and purification was minimal, if it occurred.
Table 2 describes the optical purities of (S)-isoproterenol and (S)-isoproterenol dipivalate after incubation in various eye drop formulations for 10 days at 55° C. and compared with those before incubation. The incubation for 10 days at 55° C. corresponds to the incubation for 167 days at 22° C.

SMILES: CO[C@H](CNC(C)C)c1ccc(O)c(O)c1 [(S)-1-(N-isopropyl)-3-methoxydopamine]
Activity (anti-angiogenicity) (HUVECs [1]): Anti-angiogenic

SMILES: CNCC(O)c1ccc(OC(=O)C(C)(C)C)c(OC(=O)C(C)(C)C)c1 (centres unmarked) [Dipivefrin]
enhancement of ocular absorption versus adrenaline [2]: 17 time

SMILES: NCCc1ccc(O)c(O)c1 [Dopamine]
concentration showing effective anti-angiogenic activity (angiogenesis; Basu et al., 2001): 1 µM
Activity (angiogenic / anti-angiogenic) (angiogenesis): Anti-angiogenic^b
potency (inhibition of capillary tube formation) (HUVECs [1]; angiogenic assay condition used in FIG. 1, 1-50 μM): comparable potency

SMILES: NC[C@H](O)c1ccc(O)c(O)c1 [(R)-Noradrenaline]
Activity (angiogenic / anti-angiogenic) (angiogenesis): Angiogenic^a

SMILES: CNCC(O)c1ccc(O)c(O)c1 (racemic) [(R,S)-Adrenaline]
Activity (anti-invasion) (HUVECs [3]): Non-antiinvasive
Activity (angiogenic / anti-angiogenic) (angiogenesis): Angiogenic
Activity (anti-angiogenicity) (HUVECs [1]): no anti-angiogenic activity

SMILES: CC(C)(C)NCC(O)c1ccc(O)c(O)c1 (racemic) [(R,S)-N-tert-butylnoradrenaline]
Activity (anti-angiogenicity) (HUVECs [1]): Anti-angiogenic
Activity (anti-angiogenicity) (HUVECs [1]; listed as (R,S)—N-tert-butylnoradrenaline): anti-angiogenic activity

SMILES: CC(C)NCC(O)c1ccc(O)c(O)c1 (racemic) [(R,S)-isoproterenol, reference compound]
Activity (anti-angiogenicity) (HUVECs [1]): did not show anti-angiogenic activity; also recorded: no anti-angiogenic activity; also recorded: Non-antiangiogenic
duration of reduction in ocular tension [4]: at least 12 h
reduction in ocular tension [4]: 20%

SMILES: NC[C@@H](O)c1ccc(O)c(O)c1 [(S)-Noradrenaline, reference compound]
Activity (anti-angiogenicity) (HUVECs [1]): Non-antiangiogenic
Activity (anti-angiogenicity) (HUVECs [1]; listed as (S)-noradrenaline): not anti-angiogenic

SMILES: CO[C@@H](CNC(C)C)c1ccc(O)c(O)c1 [(R)-1-(N-isopropyl)-3-methoxydopamine]
Activity (anti-angiogenicity) (HUVECs [1]): Anti-angiogenic

SMILES: CCC(NC(C)C)C(O)c1ccc(O)c(O)c1 (racemic) [Isoetharine, 1-(3,4-dihydroxyphenyl)-2-(Isopropylamino)-1(R,S)-butanol]
Activity (anti-angiogenicity) (HUVECs [1]): Anti-angiogenic
Activity (anti-angiogenicity) (HUVECs [1]; listed as isoetharine): anti-angiogenic activity

SMILES: CC(C)NC[C@H](O)c1ccc(O)c(O)c1 [(R)-isoproterenol]
Activity (anti-invasion) (HUVECs [3]): did not show any anti-invasion activity; also recorded: Non-antiinvasive
Activity (angiogenic / anti-angiogenic) (angiogenesis): Angiogenic
Activity (angiogenic / anti-angiogenic) (angiogenesis; listed as (R)-Isoproterenol): angiogenic
LD50 [5]: 57 ± 2 mg/kg

degradation of the active ingredient in eye drop (HPLC profiles) [6]: No degradation
blood glucose level (Group II, non-diabetic rats receiving prodrug eye drop, 27 week period): 5.1 ± 0.4 mM
blood glucose level (Group IV, diabetic rats receiving prodrug eye drop, stabilized level): 27 ± 5 mM
conversion to the (R)-isoform ([7]; 10 days at 55° C.): 0.02%
% optical purity ([7]; 10 days at 55° C., NaCl 8 mg/mL, Benzalkonium chloride 0.04 mg/mL, Tween 80 2.5 mg/mL): >99.90%
% optical purity ([7]; 10 days at 55° C., Povidone 2 mg/mL, Benzalkonium chloride 0.04 mg/mL, D-Mannitol 54.7 mg/mL): 99.90%
% optical purity ([7]; 10 days at 55° C., Povidone 2 mg/mL, D-Mannitol 54.7 mg/mL, Chlorobutanol 1 mg/mL, 2-hydroxypropyl cyclodextrin 10.1 mg/mL): 99.74%
% optical purity ([7]; 10 days at 55° C., Povidone 2 mg/mL, NaCl 8 mg/mL, Benzalkonium chloride 0.04 mg/mL, 2-hydroxypropyl cyclodextrin 10.1 mg/mL): 99.86%
average optical purity after incubating 10 days at 55° C. ([7]; average over the eye drop formulations): approximately 99.85±0.08%
optical purity after 2 years of storage at room temperature ([7]; extrapolated, from 99.87%): 99.78%
SMILES: CC(C)NC[C@@H](O)c1ccc(OC(=O)C(C)(C)C)c(OC(=O)C(C)(C)C)c1 [(S)-isoproterenol dipivalate]
effect on glycation in retinal capillaries (retinal capillaries; 0.1% eye drop): significantly reduced the glycation in retinal capillaries
red fluorescence intensity of AGEs normalized by the retinal capillary density (retinal capillaries; 0.1% eye drop twice a day, P 0.068 vs diabetic rats with vehicle): 0.44±0.17

SMILES: CCNC[C@@H](O)c1ccc(O)c(O)c1 [(S)-N-ethylnoradrenaline]
Activity (anti-angiogenicity) (HUVECs [1]): Anti-angiogenic
Activity (anti-angiogenicity) (HUVECs [1]; listed as (S)—N-ethylnoradrenaline): anti-angiogenic activity

SMILES: CCCNC[C@@H](O)c1ccc(O)c(O)c1 [(S)-N-n-propylnoradrenaline]
Activity (anti-angiogenicity) (HUVECs [1]): Anti-angiogenic
Activity (anti-angiogenicity) (HUVECs [1]; listed as (S)—N-propylnoradrenaline): anti-angiogenic activity

SMILES: CCCCNC[C@@H](O)c1ccc(O)c(O)c1 [(S)-N-n-butylnoradrenaline]
Activity (anti-angiogenicity) (HUVECs [1]): Anti-angiogenic
Activity (anti-angiogenicity) (HUVECs [1]; listed as (S)—N-butylnoradrenaline): anti-angiogenic activity

Source: US9351947B2, “Use of catecholamines and related compounds as anti-angiogenic agents” (National Research Council of Canada, priority 2007, dated 2016)
